The nature of data set [1]: Particle characteristics of LNPs containing EGFP mRNA and novel ionizable lipids. It counts as physicochemical. The settings on record: EGFP mRNA LNP 1.6:54.6:32.8:10.9. As to the method: The lipid solution contains 4 components: a PEG-conjugated lipid, an ionizable lipid, cholesterol, and a phospholipid (e.g., DSPC). Lipid stocks were prepared using the lipid identities and molar ratios as described, to achieve a total concentration of ˜7 mg/mL in 100% ethanol. […] Equal volumes of the lipid and nucleic acid solutions were blended at a flow rate of 400 mL/min through a T-connector, and diluted with ˜4 volumes of PBS, pH 7.4. Formulations were placed in Slide-A-Lyzer dialysis units (MWCO 10,000) and dialyzed overnight against 10 mM Tris, 500 mM NaCl, pH 8 buffer. Following dialysis, the formulations were concentrated to ˜0.6 mg/mL using VivaSpin concentrator units (MWCO 100,000) and dialyzed overnight against 5 mM Tris, 10% sucrose, pH 8 buffer. Formulations were filtered through a 0.2 μm syringe filter (PES membrane). Nucleic acid concentration was determined by the RiboGreen assay. Particle size and polydispersity were determined using a Malvern Nano Series Zetasizer.
LNP formulations containing novel ionizable lipids all produced stable particles with high encapsulation efficiency (Tables 20-23).

A short description of data set [2]: Parent ionizable lipid remaining in liver at 24 h after EGFP mRNA LNP (LC-MS). It is filed as in vivo. The settings on record: 24 h after IV 0.5 mg/kg EGFP mRNA LNP, female BALB/c mice (n = 4). As to the method:
Liver tissues were treated with PBS and homogenized with a FastPrep machine, 3 cycles of 5 m/s×15 s. Homogenates from the PBS-treated control animals was pooled and used for standard curve preparation. Samples were extracted into a deep well plate with 250 μL of an internal suitability standard. Plates were centrifuged for 15 min at 4° C. and 2000 rpm. Analysis was performed using an Agilent 6520 QTOF coupled to an Agilent 1290 UHPLC, using reverse-phase LC separation. Quantitation of the ionizable lipid was by MS/MS against a calibration curve spiked into appropriately matched blank matrix. Calibration used a similar class of synthetic lipid as internal standard.
At 24 h post-dose, some treatment groups reported lower levels of novel ionizable lipid in mouse liver compared to the benchmark (Tables 28-31).

The test system of data set [3] is EGFP expression in the liver. Description: EGFP expression in liver after intravenous EGFP mRNA LNP (ELISA). Particulars: 0.5 mg/kg IV, 24 h post-IV administration, BALB/c mice (n = 4). Background: In an ELISA, binding on a coated surface is turned into a signal by an enzyme label.

As to `CCCCCCCCCCC(CCCCCCC(=O)OCC(CCCCCC)CCCCCCCC)N(CCCCCCCCCC)C(=O)CCN(C)C` (stereo not shown) [Compound 107, 2-Hexyldecyl 8-(N-decyl-3-(dimethylamino)propanamido)octadecanoate], in data set [1] (Table 22), the “Final Product % EE” value is given as 98%, the “Final Product PDI” value stood at 0.06 and the “Final Product Z-avg” value is given as 76 nm. Also, the “Parent ionizable lipid remaining in liver, Average” value (“Parent ionizable lipid remaining” below) in data set [2] (Table 30) is reported as 28.74 nmol/g liver. The compound further showed an EGFP in data set [3] (Table 26) of 3.66E+07 pg/g liver.

As to `CCCCCCCCCCN(C(=O)CCCN(C)C)C(CCCCCCCCC)CCCCC(F)(F)C(=O)OC(CCCCC)CCCCC` (stereo not shown) [Compound 108, Undecan-6-yl 7-(N-decyl-4-(dimethylamino)butanamido)-2,2-difluorohexadecanoate], in data set [1] (Table 22), the “Final Product % EE” value is on record as 95%, the “Final Product PDI” value worked out at 0.07 and the “Final Product Z-avg” value turned out to be 80 nm. In addition, in data set [2] (Table 30), the “Parent ionizable lipid remaining” value amounted to 3.86 nmol/g liver. In data set [3] (Table 26), this compound gave an EGFP of 5.41E+07 pg/g liver.

As to `CCCCCCCCCCN(C(=O)CCCN(C)C)C(CCCCCCCCC)CCCCC(F)(F)C(=O)OC(CCCCCCCC)CCCCCCCC` (stereo not shown) [Compound 110, Heptadecan-9-yl 7-(N-decyl-4-(dimethylamino)butanamido)-2,2-difluorohexadecanoate], in data set [1] (Table 22), the “Final Product % EE” value came out at 98%, the “Final Product PDI” value was determined as 0.11 and the “Final Product Z-avg” value is 67 nm. Further, the “Parent ionizable lipid remaining” value in data set [2] (Table 30) was found to be 33.07 nmol/g liver. The same compound showed an EGFP in data set [3] (Table 26) of 4.01E+07 pg/g liver.

`CCCCCCCCCCN(C(=O)CCCN(C)C)C(CCCCCCCCC)CCCCCCC(F)C(=O)OC(CCCCC)CCCCC` (stereo not shown) [Compound 112, Undecan-6-yl 9-(N-decyl-4-(dimethylamino)butanamido)-2-fluorooctadecanoate]: in data set [1] (Table 22), the “Final Product % EE” value was found to be 95%, the “Final Product PDI” value was determined as 0.08 and the “Final Product Z-avg” value came to 82 nm. Also, in data set [2] (Table 30), the “Parent ionizable lipid remaining” value is recorded as 1.73 nmol/g liver. In data set [3] (Table 26), the EGFP was determined as 4.78E+07 pg/g liver.

`CCCCCCCCCCN(C(=O)CCCN(C)C)C(CCCCCCCCC)CCCCCCC(F)C(=O)OC(CCCCCC)CCCCCC` (stereo not shown) [Compound 113, Tridecan-7-yl 9-(N-decyl-4-(dimethylamino)butanamido)-2-fluorooctadecanoate]: in data set [1] (Table 22), the “Final Product % EE” value is on record as 98%, the “Final Product PDI” value is on record as 0.05 and the “Final Product Z-avg” value stood at 72 nm. Besides, the “Parent ionizable lipid remaining” value in data set [2] (Table 30) worked out at 4.68 nmol/g liver. For the same compound, the EGFP in data set [3] (Table 26) is on record as 3.45E+07 pg/g liver.

Consider `CCCCCCCCCCN(C(=O)CCCN(C)C)C(CCCCCCCCC)CCCCCCC(F)C(=O)OC(CCCCCCC)CCCCCCC` (stereo not shown) [Compound 114, Pentadecan-8-yl 9-(N-decyl-4-(dimethylamino)butanamido)-2-fluorooctadecanoate], for which, in data set [1] (Table 22), the “Final Product % EE” value worked out at 98%, the “Final Product PDI” value stood at 0.08 and the “Final Product Z-avg” value is 73 nm. Besides, the “Parent ionizable lipid remaining” value in data set [2] (Table 30) came to 12.79 nmol/g liver. Further, the EGFP in data set [3] (Table 26) was 4.29E+07 pg/g liver.

Consider `CCCCCCCCCCC(CCCCCCC(=O)OC(CCCCCC)CCCCCC)N(CCCCCCC(F)(F)C(=O)OC(CCCCCC)CCCCCC)C(=O)CCCN(C)C` (stereo not shown) [Compound 116, Tridecan-7-yl 8-(N-(7,7-difluoro-8-oxo-8-(tridecan-7-yloxy)octyl)-4-(dimethylamino)-butanamido)octadecanoate], for which, in data set [1] (Table 22), the “Final Product % EE” value was 98%, the “Final Product PDI” value worked out at 0.09 and the “Final Product Z-avg” value was 75 nm. In addition, in data set [2] (Table 30), the “Parent ionizable lipid remaining” value was 60.05 nmol/g liver. The compound further had an EGFP in data set [3] (Table 26) of 2.93E+07 pg/g liver.

`CCCCCCCCCCC(CCCCCCC(=O)OC(CCCCCCC)CCCCCCC)N(CCCCCCC(F)(F)C(=O)OC(CCCCCCC)CCCCCCC)C(=O)CCCN(C)C` (stereo not shown) [Compound 117, Pentadecan-8-yl 8-(N-(7,7-difluoro-8-oxo-8-(pentadecan-8-yloxy)octyl)-4-(dimethylamino)butanamido)octadecanoate]: in data set [1] (Table 22), the “Final Product % EE” value is listed as 99%, the “Final Product PDI” value is 0.06 and the “Final Product Z-avg” value is 80 nm. Besides, the “Parent ionizable lipid remaining” value in data set [2] (Table 30) came out at 49.53 nmol/g liver. The EGFP in data set [3] (Table 26) came to 3.15E+07 pg/g liver.

Turning to `CCCCCCCCCCC(CCCCCCC(=O)OC(CCCCCCCC)CCCCCCCC)N(CCCCCCC(F)(F)C(=O)OC(CCCCCCCC)CCCCCCCC)C(=O)CCCN(C)C` (stereo not shown) [Compound 118, Heptadecan-9-yl 8-(N-(7,7-difluoro-8-(heptadecan-9-yloxy)-8-oxooctyl)-4-(dimethylamino)butanamido)octadecanoate], in data set [1] (Table 22), the “Final Product % EE” value was 98%, the “Final Product PDI” value came out at 0.06 and the “Final Product Z-avg” value was found to be 83 nm. The “Parent ionizable lipid remaining” value in data set [2] (Table 30) amounted to 62.81 nmol/g liver. Moreover, the EGFP in data set [3] (Table 26) is 1.86E+07 pg/g liver.

As for `CCCCCCCCCCC(CCCCCCCC(=O)OCC(CCCCCC)CCCCCCCC)N(CCCCCCCCCC)C(=O)CCN(C)C` (stereo not shown) [Compound 119, 2-Hexyldecyl 9-(N-decyl-3-(dimethylamino)propanamido)nonadecanoate], in data set [1] (Table 22), the “Final Product % EE” value stood at 97%, the “Final Product PDI” value stood at 0.09 and the “Final Product Z-avg” value came to 73 nm. Also, the “Parent ionizable lipid remaining” value in data set [2] (Table 30) is recorded as 25.25 nmol/g liver. In data set [3] (Table 26), the EGFP was determined as 1.60E+07 pg/g liver.

Turning to `CCCCCCCCCCN(C(=O)CCCN(C)C)C(CCCCCCCCC)CCCCC(F)C(=O)OCC(CCCCCC)CCCCCCCC` (stereo not shown) [Compound 120, 2-Hexyldecyl 7-(N-decyl-4-(dimethylamino)butanamido)-2-fluorohexadecanoate], in data set [1] (Table 23), the “Final Product % EE” value worked out at 99%, the “Final Product PDI” value came out at 0.15 and the “Final Product Z-avg” value worked out at 69 nm. The “Parent ionizable lipid remaining” value in data set [2] (Table 31) was determined as 4.8 nmol/g liver. Besides, the EGFP in data set [3] (Table 27) is on record as 1.90E+07 pg/g liver.

Regarding `CCCCCCCCCCN(C(=O)CCCN(C)C)C(CCCCCCCCC)CCCCC(F)C(=O)OC(CCCCCC)CCCCCC` (stereo not shown) [Compound 121, Tridecan-7-yl 7-(N-decyl-4-(dimethylamino)butanamido)-2-fluorohexadecanoate], in data set [1] (Table 23), the “Final Product % EE” value is 99%, the “Final Product PDI” value was 0.10 and the “Final Product Z-avg” value is given as 77 nm. For the same compound, the “Parent ionizable lipid remaining” value in data set [2] (Table 31) was 2.1 nmol/g liver. This compound also had an EGFP in data set [3] (Table 27) of 3.81E+07 pg/g liver.

As for `CCCCCCCCCCN(C(=O)CCCN(C)C)C(CCCCCCCCC)CCCCC(F)C(=O)OC(CCCCCCC)CCCCCCC` (stereo not shown) [Compound 122, Pentadecan-8-yl 7-(N-decyl-4-(dimethylamino)butanamido)-2-fluorohexadecanoate], in data set [1] (Table 23), the “Final Product % EE” value was determined as 100%, the “Final Product PDI” value was 0.13 and the “Final Product Z-avg” value was 70 nm. For the same compound, the “Parent ionizable lipid remaining” value in data set [2] (Table 31) came out at 6.3 nmol/g liver. The compound also came in with an EGFP in data set [3] (Table 27) of 2.35E+07 pg/g liver.

`CCCCCCCCCCN(C(=O)CCCN(C)C)C(CCCCCCCCC)CCCCC(F)C(=O)OC(CCCCCCCC)CCCCCCCC` (stereo not shown) [Compound 123, Heptadecan-9-yl 7-(N-decyl-4-(dimethylamino)butanamido)-2-fluorohexadecanoate]: in data set [1] (Table 23), the “Final Product % EE” value came to 99%, the “Final Product PDI” value is on record as 0.15 and the “Final Product Z-avg” value worked out at 73 nm. For the same compound, the “Parent ionizable lipid remaining” value in data set [2] (Table 31) turned out to be 10.5 nmol/g liver. Further, in data set [3] (Table 27), the EGFP was 3.94E+07 pg/g liver.

The values are drawn from patent US20250332112A1, “IONIZABLE CATIONIC LIPIDS FOR LIPID NANOPARTICLES” (GENEVANT SCIENCES GMBH, priority 2022, published 2025).
